Assay [1] relates to HCT15 cells. In words: HCT15 anti-proliferation / cell killing assay (CellTiter-Glo), with or without verapamil. In kind it is cell-based, human. Particulars: Homo sapiens. On the procedure: The cell line used in the anti-proliferation assays was HCT15, a human colon, colorectal carcinoma cell line. The HCT15 cells were grown in RPMI medium 1640+10% FBS. To run the assay, the cells (40 μL, 400 cells) were added to each well in a 384-well plate and incubated for twenty-four hours at 37° C. with 5% CO2. One hour before adding compounds, freshly dilute Verapamil to 0.2 mg/ml in ddH2O. Add 1 μL/well diluted Verapamil to Verapamil treatment wells and 1 μL/well ddH2O to the non-Verapamil treatment wells. Return plates to the incubator at 37° C. with 5% CO2. Then the cells were treated with test compounds at various concentrations using HPD300, and then normalize the DMSO to 0.5%. The control wells contained cells and the medium but lack the test compounds. The plates were incubated for 120 hours at 37° C. with 5% CO2. CTG reagent was then added to the wells (25 μL). After the plates were shaken for 10 min and then incubated for 10 min at room temperature, paste the clear bottom with white back seal and record luminescence with Envision. The inhibition % was calculated according to the following equation: inhibition %=[1−(assay-blank)/(control-blank)]×100.

Assay [2] has as its system SK-BR-3 cells. The experiment in a line: SK-BR-3 anti-proliferation assay for payloads (CellTiter-Glo). In kind it is cell-based. Particulars: Homo sapiens, free payload, 120-144 h, read-out: SKBR3. On the procedure: The cell line used in the anti-proliferation assays was SK-BR-3, a human breast, adenocarcinoma (pleural effusion) cell line. The cells were grown in McCoy's 5a Medium+10% FBS. To run the assay for payloads, the cells (40 μL, 700 cells) were added to each well in a 384-well plate and incubated for 24 hours at 37° C. with 5% CO2. Then the cells were treated with test compounds at various concentrations using HPD300, and then normalize the DMSO to 0.5%. The control wells contain cells and the medium but lack the test compounds. The plates were incubated for 120 h at 37° C. with 5% CO2. To run the assay for ADCs and some key payloads, the cells (80 μL, 1000 cells) were added to each well in a 96-well plate and incubated for twenty-four hours at 37° C. with 5% CO2. Next, the ADCs or payloads were diluted with Opti-Mem with 0.1% BSA. The cells were treated with test compounds or ADCs (20 μL) at various concentrations in appropriate cell culture medium (total volume, 0.1 mL). The final concentration of DMSO was adjusted to 0.2% and the Opti-Mem with 0.1% BSA was adjusted to 5%. The control wells contained cells and the medium but lacked the test compounds. The plates were incubated for 144 h at 37° C. with 5% CO2. CTG reagent was then added to the wells (25 μL/384-well or 100 μL/96-well). After the plates were shaken for 10 min and then incubated for 10 min at room temperature, paste the clear bottom with white back seal and record luminescence with Envision. The inhibition % was calculated according to the following equation: inhibition %=[1-(assay-blank)/(control-blank)]×100.

Where [3] appears, read: HCT15 cells, no verapamil, 120 h (5 days), read-out: HCT-15.
The mark [4] stands for this setting: HCT-15, HCT15 cells pre-treated with verapamil, 120 h, read-out: HCT-15 with verapamil.

Molecules are shown by their SMILES. Read-outs that look alike come from different tables or passages of the source. Bounds are passed on as bounds.

Turning to `CCCCCCN(C(=O)[C@@H](NC(=O)[C@@]1(C)CCCN1CCN)[C@@H](C)CC)[C@H](C[C@@H](OC(C)=O)c1nc(C(=O)N[C@@H](Cc2ccc(O)cc2)CC(C)(C)C(=O)O)cs1)C(C)C` (mixture of isomers) [PA5, (S)-4-(2-((1RS,3RS)-1-acetoxy-3-((2SR,3SR)-2-((R)-1-(2-aminoethyl)-2-methylpyrrolidine-2-carboxamido)-N-hexyl-3-methylpentanamido)-4-methylpentyl)thiazole-4-carboxamido)-5-(4-hydroxyphenyl)-2,2-dimethylpentanoic acid], the IC50 in assay [1] (setting [3]) was over 100 nM; in assay [1] (setting [4]), 15.9 nM; in assay [2] it was 18.3 nM.

In the case of `CCCCCCN(C(=O)[C@@H](NC(=O)[C@H]1CCCCN1)[C@@H](C)CC)[C@H](C[C@@H](OC(C)=O)c1nc(C(=O)N[C@@H](Cc2ccc(NCC(=O)O)cc2)CC(C)(C)C(=O)O)cs1)C(C)C` (mixture of isomers) [PA17, Rac-(R)-4-(2-((1S,3S)-1-acetoxy-3-((2R,3R)—N-hexyl-3-methyl-2-((S)-piperidine-2-carboxamido)pentanamido)-4-methylpentyl)thiazole-4-carboxamido)-5-(4-((carboxymethyl)amino)phenyl)-2,2-dimethylpentanoic acid], the IC50 in assay [1] (setting [3]) stood at 1.39 nM; in assay [1] (setting [4]) it was 0.09 nM; in assay [2] it was 0.131 nM.

As to `CCCCCCN(C(=O)[C@@H](NC(=O)[C@H]1CCCCN1)[C@@H](C)CC)[C@H](C[C@@H](OCCCO)c1nc(C(=O)N[C@@H](Cc2ccc(NCC(=O)O)cc2)CC(C)(C)C(=O)O)cs1)C(C)C` (mixture of isomers) [PA23, Rac-(R)-5-(4-((carboxymethyl)amino)phenyl)-4-(2-((1S,3S)-3-((2R,3R)—N-hexyl-3-methyl-2-((S)-piperidine-2-carboxamido)pentanamido)-1-(3-hydroxypropoxy)-4-methylpentyl)thiazole-4-carboxamido)-2,2-dimethylpentanoic acid], the IC50 was over 1000 nM in assay [1] (setting [3]), over 1000 nM in assay [1] (setting [4]) and 9.35 nM in assay [2].

On to `CCCCCCN(C(=O)[C@@H](NC(=O)[C@H]1CCCCN1C)[C@@H](C)CC)[C@H](C[C@@H](OC(=O)NCCOCCOCCO)c1nc(C(=O)N[C@@H](Cc2ccc(N)c(F)c2)CC(C)(C)C(=O)O)cs1)C(C)C` (mixture of isomers) [PA25, (S)-5-(4-amino-3-fluorophenyl)-4-(2-((3RS,6SR,8SR)-3-((RS)-sec-butyl)-5-hexyl-19-hydroxy-6-isopropyl-1-((R)-1-methylpiperidin-2-yl)-1,4,10-trioxo-9,14,17-trioxa-2,5,11-triazanonadecan-8-yl)thiazole-4-carboxamido)-2,2-dimethylpentanoic acid], for which the IC50 in assay [1] (setting [3]) came out at 0.477 nM; in assay [1] (setting [4]), 0.158 nM; in assay [2], 1.6 nM.

On to `CCCCCCN(C(=O)[C@@H](NC(=O)[C@H]1CCCCN1C)[C@@H](C)CC)[C@H](C[C@@H](OC(C)=O)c1nc(C(=O)N[C@@H](Cc2ccc(NCC(N)=O)cc2)CC(C)(C)C(=O)O)cs1)C(C)C` (racemic) [PA18, Rac-(R)-4-(2-((1S,3S)-1-acetoxy-3-((2R,3R)—N-hexyl-3-methyl-2-((S)-1-methylpiperidine-2-carboxamido)pentanamido)-4-methylpentyl)thiazole-4-carboxamido)-acid], for which the IC50 in assay [1] (setting [3]) is 0.3 nM; in assay [1] (setting [4]) it was 0.131 nM; in assay [2], 0.067 nM.

Consider `CCCCCCN(C(=O)[C@@H](NC(=O)[C@H]1CCCCN1C)[C@@H](C)CC)[C@H](C[C@@H](OC(C)=O)c1nc(C(=O)N[C@@H](Cc2ccc(N(CCO)C(=O)CN)cc2)CC(C)(C)C(=O)O)cs1)C(C)C` (racemic) [PA19, Rac-(R)-4-(2-((1S,3S)-1-acetoxy-3-((2R,3R)—N-hexyl-3-methyl-2-((S)-1-methylpiperidine-2-carboxamido)pentanamido)-4-methylpentyl)thiazole-4-carboxamido)-acid], for which the results for the IC50 in assay [1] (setting [3]), in assay [1] (setting [4]) and in assay [2] were 10.8 nM, 1.8 nM and 1.84 nM, respectively.

For the molecule `CCCCCCN(C(=O)[C@@H](NC(=O)[C@H]1CCCCN1C)[C@@H](C)CC)[C@H](C[C@@H](OC(C)=O)c1nc(C(=O)N[C@@H](Cc2ccc(N)cc2)CC(C)(C)C(=O)NCC(=O)O)cs1)C(C)C` (racemic) [PA29, Rac-((R)-4-(2-((1S,3S)-1-acetoxy-3-((2R,3R)—N-hexyl-3-methyl-2-((S)-1-methylpiperidine-2-carboxamido)pentanamido)-4-methylpentyl)thiazole-4-carboxamido)-5-(4-aminophenyl)-2,2-dimethylpentanoyl)glycine], the IC50 in assay [1] (setting [3]) worked out at 97.1 nM; in assay [1] (setting [4]) it was 9.7 nM; in assay [2], 1.47 nM.

Consider `CCCCCCN(C(=O)[C@@H](NC(=O)[C@@]1(C)CCCN1)[C@@H](C)CC)[C@H](C[C@@H](OC(C)=O)c1nc(C(=O)N[C@@H](Cc2ccc(O)cc2)CC(C)(C)C(=O)O)cs1)C(C)C` [Compound P22, reference compound], for which the values for the IC50 in assay [1] (setting [3]), in assay [1] (setting [4]) and in assay [2] were 0.265 nM, 0.078 nM and 0.087 nM, respectively.

As to `CCCCCCN(C(=O)[C@@H](NC(=O)[C@H]1CCCCN1C)[C@@H](C)CC)[C@H](C[C@@H](OC(C)=O)c1nc(C(=O)N[C@@H](Cc2ccc(NC(=O)CN)cc2)CC(C)(C)C(=O)O)cs1)C(C)C` [Compound P28, reference compound], the IC50 was determined as 0.172 nM in assay [1] (setting [3]), 0.107 nM in assay [1] (setting [4]) and 0.039 nM in assay [2].

`CCCCCCN(C(=O)[C@@H](NC(=O)[C@@]1(C)CCCN1C(=O)CN)[C@@H](C)CC)[C@H](C[C@@H](OC(C)=O)c1nc(C(=O)N[C@@H](Cc2ccc(N)c(F)c2)CC(C)(C)C(=O)O)cs1)C(C)C` [PA1, (4S)-4-({2-[(1R,3R)-1-(acetyloxy)-3-[(2S,3S)-2-{[(2R)-1-(2-aminoacetyl)-2-methylpyrrolidin-2-yl]formamido}-N-hexyl-3-methylpentanamido]-4-methylpentyl]-1,3-thiazol-4-yl}formamido)-5-(4-amino-3-fluorophenyl)-2,2-dimethylpentanoic acid]: the IC50 in assay [1] (setting [3]) and in assay [1] (setting [4]) was over 100 nM in each case.

Turning to `CCCCCCN(C(=O)[C@@H](NC(=O)[C@@]1(C)CCCN1C(=O)CN)[C@@H](C)CC)[C@H](C[C@@H](OC(C)=O)c1nc(C(=O)N[C@@H](Cc2ccc(O)cc2)CC(C)(C)C(=O)O)cs1)C(C)C` [PA2, (4S)-4-({2-[(1R,3R)-1-(acetyloxy)-3-[(2S,3S)-2-{[(2R)-1-(2-aminoacetyl)-2-methylpyrrolidin-2-yl]formamido}-N-hexyl-3-methylpentanamido]-4-methylpentyl]-1,3-thiazol-4-yl}formamido)-5-(4-hydroxyphenyl)-2,2-dimethylpentanoic acid], in assay [1] (setting [3]), the IC50 is over 100 nM.

For the molecule `C#CCCCON(C(=O)[C@@H](NC(=O)[C@@]1(C)CCCN1CCO)[C@@H](C)CC)[C@H](C[C@@H](OC(C)=O)c1nc(C(=O)N[C@@H](Cc2ccc(N)cc2)CC(C)(C)C(=O)O)cs1)C(C)C` [PA3, (4S)-4-({2-[(1R,3R)-1-(acetyloxy)-3-[(2S,3S)-2-{[(2R)-1-(2-hydroxyethyl)-2-methylpyrrolidin-2-yl]formamido}-3-methyl-N-(pent-4-yn-1-yloxy)pentanamido]-4-methylpentyl]-1,3-thiazol-4-yl}formamido)-5-(4-aminophenyl)-2,2-dimethylpentanoic acid], the IC50 in assay [1] (setting [3]) turned out to be 7.7 nM; in assay [1] (setting [4]), 0.741 nM; in assay [2] it was 1.46 nM.

Values taken from patent US20230414775A1, “TUBULYSINS AND PROTEIN-TUBULYSIN CONJUGATES” (priority 2021, published 2023).
